{"source": "patent US20090239926A1", "about": "“METHODS FOR THE TREATMENT OF PSORIASIS OR PSORIATIC ARTHRITIS USING CYCLOPROPYL-N-CARBOXAMIDE” (priority 2008, published 2009)", "test_system": "mAB/LPS-induced experimental arthritis in male BALB/c mice", "test": "mAb/LPS-induced mice arthritis model", "type": "in vivo", "details": "Enbrel 5 mg/kg/day IP", "experimental": "Treatment Regimen: Compound A was administered by oral gavage (PO), using a suitable stainless steel feeding needle. Enbrel (Reference Item) was administrated by intraperitoneal (IP) injections. Compound A was first administered on study Day 3 (one hour prior to the single LPS injection) and thereafter on Days 4, 5, 6, 7, 8, 9, 10, 11, 12 and 13 (total of 11 successive treatment days) at 1, 5 and 25 mg/kg once daily. Compound A treated groups comprised n=8 BALB/c male mice per dosing group. In addition, two equally sized groups were treated with either Enbrel (5 mg/kg/day, Reference Item), or a solution of 0.5% Na CMC/0.25% Tween 80 (PO, 5 ml/kg, Vehicle Control).\nArthritis Reactions: Both hind paws (left and right) of each animal were examined for signs of arthritogenic responses prior to arthritis induction (Day 0) and thereafter on study days 4, 5, 6, 7, 9, 11 & 14 as selected by the Sponsor. Arthritis reactions were scored and recorded according to a 0-4 scale in ascending order of severity (based on Morwell MD Biosciences Inc. brochure) as shown in Table 1.\nMeasurements of Experimental Arthritis: Hind paw thickness was determined on eight days using a Mitutoyo Electronic Digital Caliper (on Days 0, 4, 5, 6, 7, 9, 11 and 14) and presented as mean group values of the average for both left and right hind paws.", "key": {"[1]": {"details": "Day 0 (prior to arthritis induction)"}}}
{"substance": "Enbrel", "values": [{"measurement": "Arthritis Scoring, mean of both hind paws (0-4 scale)", "setting": "[1]", "value": 0}, {"measurement": "Hind Paws Thickness, group mean", "setting": "[1]", "value": 2.2, "unit": "mm"}, {"measurement": "Arthritis Scoring, mean of both hind paws (0-4 scale)", "setting": "Day 4", "value": 0}, {"measurement": "Hind Paws Thickness, group mean", "setting": "Day 4", "value": 2.2, "unit": "mm"}, {"measurement": "Percentage Change in Hind Paw Thickness vs. Study Commencement (Day 0), group mean", "setting": "Day 4", "value": 0, "unit": "%"}, {"measurement": "Arthritis Scoring, mean of both hind paws (0-4 scale)", "setting": "Day 5", "value": 1}, {"measurement": "Hind Paws Thickness, group mean", "setting": "Day 5", "value": 2.3, "unit": "mm"}, {"measurement": "Percentage Change in Hind Paw Thickness vs. Study Commencement (Day 0), group mean", "setting": "Day 5", "value": 6, "unit": "%"}, {"measurement": "Arthritis Scoring, mean of both hind paws (0-4 scale)", "setting": "Day 6", "value": 1}, {"measurement": "Hind Paws Thickness, group mean", "setting": "Day 6", "value": "2.5*↓ mm"}, {"measurement": "Percentage Change in Hind Paw Thickness vs. Study Commencement (Day 0), group mean", "setting": "Day 6", "value": 13, "unit": "%"}, {"measurement": "Arthritis Scoring, mean of both hind paws (0-4 scale)", "setting": "Day 7", "value": "1**↓"}, {"measurement": "Hind Paws Thickness, group mean", "setting": "Day 7", "value": "2.5**↓ mm"}, {"measurement": "Percentage Change in Hind Paw Thickness vs. Study Commencement (Day 0), group mean", "setting": "Day 7", "value": "12**↓ %"}, {"measurement": "Arthritis Scoring, mean of both hind paws (0-4 scale)", "setting": "Day 9", "value": "1***↓"}, {"measurement": "Hind Paws Thickness, group mean", "setting": "Day 9", "value": "2.3**↓ mm"}, {"measurement": "Percentage Change in Hind Paw Thickness vs. Study Commencement (Day 0), group mean", "setting": "Day 9", "value": "7**↓ %"}, {"measurement": "Arthritis Scoring, mean of both hind paws (0-4 scale)", "setting": "Day 11", "value": "0***↓"}, {"measurement": "Hind Paws Thickness, group mean", "setting": "Day 11", "value": "2.3**↓ mm"}, {"measurement": "Percentage Change in Hind Paw Thickness vs. Study Commencement (Day 0), group mean", "setting": "Day 11", "value": "4**↓ %"}, {"measurement": "Arthritis Scoring, mean of both hind paws (0-4 scale)", "setting": "Day 14", "value": "0**↓"}, {"measurement": "Hind Paws Thickness, group mean", "setting": "Day 14", "value": "2.3**↓ mm"}, {"measurement": "Percentage Change in Hind Paw Thickness vs. Study Commencement (Day 0), group mean", "setting": "Day 14", "value": "4**↓ %"}]}
